We go through seven compounds from article PMC6764326, “The Trials and Tribulations of Structure Assisted Design of KCa Channel Activators” (Frontiers in Pharmacology, 2019).

Structures are written as SMILES.

In one assay the test system is KCa3.1. The conditions noted are these: cited from earlier work; for EC50: ref Coleman et al., 2014, read-out: Potency of KCa3.1 activation.
Another assay deals with KCa2. Further details: method as in Coleman et al., 2014. Conditions: ref Coleman et al., 2014; read-out: Potency of KCa2 activation; cited from earlier work.
The next assay deals with KCa2.2. Also on record: method as in Sankaranarayanan et al., 2009. The conditions noted are these: ref Sankaranarayanan et al., 2009; cited from earlier work.
The subject of assay [1] is KCa3.1 over KCa2 channels. Conditions: first generation activators; ref Christophersen and Wulff, 2015; cited from earlier work.
In assay [2] the target is T1, KCa3.1 S181A-L185A double mutant (Homo sapiens, UniProt O15554+P0DP23, L185A/S181A).
T1 construct: expressed in transfected cells; host or cells: CHO cells, transient transfection
Description: Inside-out patch-clamp calcium concentration-response. Format: cell-based. The procedure: (§1) All experiments were performed in either the inside-out or the whole-cell configuration of the patch-clamp technique on either transiently transfected CHO cells or Human Embryonic Kidney (HEK) cell lines stably expressing hKCa3.1 or hKCa2.2 ([Sankaranarayanan et al., 2009]). All cells were cultured in Dulbecco’s modified Eagle’s medium supplemented with 10% fetal calf serum. […]
(§2) For manual whole-cell experiments, the extracellular solution contained 160 mM NaCl, 4.5 mM KCl, 2 mM CaCl2, 1 mM MgCl2, and 10 mM HEPES (pH 7.4, 300 mOsm). Solutions on the intracellular side contained 154 mM KCl, 10 mM HEPES, 10 mM EGTA, 1.75 mM MgCl2, and 5.9 mM CaCl2 for a calculated free Ca^2+ concentration of 250 nM (pH 7.2, 290 mOsm). […] Intracellular solutions contained 154 mM KCl, 10 mM HEPES, 10 mM EGTA, 1.75 mM MgCl2, and varying amounts of CaCl2 for calculated free Ca^2+ concentrations of […] (pH 7.2, 280–300 mOsm). Free Ca^2+ concentrations were calculated using the July 3, 2009 online version of MaxChelator (https://somapp.ucdmc.ucdavis.edu/pharmacology/bers/maxchelator/webmaxc/webmaxcS.htm) assuming a temperature of 25°C, a pH of 7.2, and an ionic strength of 160 mM. […]
For orientation: The patch-clamp technique gives a direct electrical read-out from membranes.

For assay [3], the target named is T2, WT KCa3.1 (Homo sapiens, UniProt O15554+P0DP23). The assay is described as above. Format: cell-based. Also on record: expressed in transfected cells; host or cells: CHO cells, transient transfection. As for the experimental part: as §1, §2
For the next assay, the system named is KCa2.3. Also on record: method as in Coleman et al., 2014. The conditions noted are these: ref Coleman et al., 2014; read-out: Potency of KCa2.3 activation; cited from earlier work.
The target in assay [4] is T2, WT KCa3.1. The conditions noted are these: 100 µM EBIO; control current at 250 nM free Ca2+; wild type channel.
The test system of assay [5] is S372 in KCa3.1 or the corresponding S632 residue in KCa2.3 to arginine. Also on record: method as in Brown et al., 2017. Conditions: ref Brown et al., 2017; cited from earlier work.

On to `Cc1nc2c(ccc3ccccc32)s1` [SKA-74, 2-methylnaphtho[1,2-d]thiazole], for which the EC50 with KCa3.1 and in the assay on KCa2 was about 30 µM in each case.

In the case of `Nc1nc2c(ccc3ccccc32)s1` [SKA-31, Naphtho[1,2-d]thiazol-2-ylamine], in the assay with KCa3.1 (10 µM, ref Sankaranarayanan et al., 2009), the “Activation of KCa3.1 at 10 µM” value is recorded as “maximally activates”. In addition, the “Activation of KCa2.2 at 10 µM” value in the assay on KCa2.2 was “maximally activates”. Further, the “Selectivity for KCa3.1 over KCa2 channels” value (from here on “Selectivity”) in assay [1] is on record as 5–10 fold.

For the compound `[Ca]` [calcium], the EC50 in [2] was 0.392 µM; on WT KCa3.1 [3], 0.437 µM. Further, the nH calcium concentration-response in [2] was determined as 1.39; at WT KCa3.1 [3], 1.98.

As to `Nc1nc(-c2ccc3ccccc3c2)cs1` [SKA-76], the EC50 with KCa3.1 is about 50 µM; in the assay on KCa2.3, about 25 µM.

With `CCn1c(=O)[nH]c2ccccc21` [EBIO], on WT KCa3.1 [4], the “Increase of control current” value was 5–10 fold. Also, the “Selectivity” value in assay [1] is 5–10 fold. The “Change of activator potency by S372R (KCa3.1) / S632R (KCa2.3) mutation” value in assay [5] is “strong reduction in potency”.

With `Nc1nc(-c2cccc3ccccc23)cs1` [SKA-75], the EC50 in the assay on KCa3.1 and in the assay with KCa2.3 was about 30 µM throughout.

Turning to `O=C1Nc2c(ccc(Cl)c2Cl)C1=NO` [NS309, 6,7-dichloro-1H-indole-2,3-dione 3-oxime], the “Selectivity” value in assay [1] is 5–10 fold. The “Change of activator potency by S372R (KCa3.1) / S632R (KCa2.3) mutation” value in assay [5] is given as “strong reduction in potency”.
